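Growth conditions: 96-well plates. Treatment: test compound, 48 hours, 5 concentrations. Analysis: linear interpolation between bracketing concentrations; unreached endpoints set to highest concentration. TGI: concentration producing complete growth inhibition.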

One assay deals with U251 CNS. The assay can be described thus: NCI tumour cell line growth inhibition, 48 h.
With `CCN1c2ccccc2-n2c(C)nnc2-c2c1n[nH]c2-c1ccccc1`, the TGI stood at 46.8 µM.

With `C[C@]12CC[C@@H]3c4ccc(O)cc4CC[C@H]3[C@@H]1C/C(=C\c1ccncc1)C2=O`, the TGI is > 100 µM.

With `C=CCN1C(=O)/C(=C/c2ccccc2)N=C1SC1OC(COC(=O)c2ccccc2)C(OC(=O)c2ccccc2)C1OC(=O)c1ccccc1` (stereo not given), the TGI was > 100 µM.

For `C#CCCCCC#Cc1ccccc1C(=O)OC`, the TGI is > 100 µM.

Take `C/C(CCOC1CCCCO1)=C(\C)[Si](C)(C)C` (stereo not given): the TGI was > 100 µM.

On to `COCCOCOc1ccc(OCc2ccccc2)cc1`, for which the TGI is > 100 µM.

Take `C=C(C(=O)C(=O)Oc1ccc(Cl)cc1)C(=O)c1ccc(C)cc1`: the TGI came to 46.2 µM.

For another assay, the system named is HT29 colon. The assay is described as follows: NCI tumour cell line growth inhibition, 48 h.
In the case of `COC(=O)C1C(C(=O)OC)N(Cc2ccccc2)C(=O)N1Cc1ccccc1` (stereo not given), the TGI is > 100 µM.

For `CCOC(=O)c1csc(NC(=O)CCN(CC)CC)n1`, the TGI came out at 64.6 µM.

For `CCN1c2ccccc2-n2c(C)nnc2-c2c1n[nH]c2-c1ccccc1`, the TGI was > 100 µM.

`C[C@]12CC[C@@H]3c4ccc(O)cc4CC[C@H]3[C@@H]1C/C(=C\c1ccncc1)C2=O` returned a TGI of 72.2 µM.

Turning to `C#CCCCCC#Cc1ccccc1C(=O)OC`, the TGI is > 100 µM.

Regarding `C/C(CCOC1CCCCO1)=C(\C)[Si](C)(C)C` (stereo not given), the TGI is > 100 µM.

Regarding `COCCOCOc1ccc(OCc2ccccc2)cc1`, the TGI is > 100 µM.

Regarding `C=C(C(=O)C(=O)Oc1ccc(Cl)cc1)C(=O)c1ccc(C)cc1`, the TGI was > 100 µM.

In another assay the test system is LOX IMVI melanoma. The assay is described as follows: NCI tumour cell line growth inhibition, 48 h.
Take `COC(=O)C1C(C(=O)OC)N(Cc2ccccc2)C(=O)N1Cc1ccccc1` (stereo not given): the TGI was > 100 µM.

As for `CCOC(=O)c1csc(NC(=O)CCN(CC)CC)n1`, the TGI was > 100 µM.

Take `CCN1c2ccccc2-n2c(C)nnc2-c2c1n[nH]c2-c1ccccc1`: the TGI was determined as 89.2 µM.

Compound `C[C@]12CC[C@@H]3c4ccc(O)cc4CC[C@H]3[C@@H]1C/C(=C\c1ccncc1)C2=O` registered a TGI of 58.9 µM.

Take `C=CCN1C(=O)/C(=C/c2ccccc2)N=C1SC1OC(COC(=O)c2ccccc2)C(OC(=O)c2ccccc2)C1OC(=O)c1ccccc1` (stereo not given): the TGI is > 100 µM.

`C#CCCCCC#Cc1ccccc1C(=O)OC` registered a TGI of 33.1 µM.

For the compound `C/C(CCOC1CCCCO1)=C(\C)[Si](C)(C)C` (stereo not given), the TGI is > 100 µM.

For the compound `COCCOCOc1ccc(OCc2ccccc2)cc1`, the TGI is > 100 µM.

With `C=C(C(=O)C(=O)Oc1ccc(Cl)cc1)C(=O)c1ccc(C)cc1`, the TGI was determined as 16.5 µM.

In a further assay the test system is CCRF-CEM leukemia. The assay is described as follows: NCI tumour cell line growth inhibition, 48 h.
With `COC(=O)C1C(C(=O)OC)N(Cc2ccccc2)C(=O)N1Cc1ccccc1` (stereo not given), the TGI was > 100 µM.

Consider `CCOC(=O)c1csc(NC(=O)CCN(CC)CC)n1`, for which the TGI was determined as 83.3 µM.

Turning to `CCN1c2ccccc2-n2c(C)nnc2-c2c1n[nH]c2-c1ccccc1`, the TGI was 55.4 µM.

As to `C[C@]12CC[C@@H]3c4ccc(O)cc4CC[C@H]3[C@@H]1C/C(=C\c1ccncc1)C2=O`, the TGI was > 100 µM.

In the case of `C=CCN1C(=O)/C(=C/c2ccccc2)N=C1SC1OC(COC(=O)c2ccccc2)C(OC(=O)c2ccccc2)C1OC(=O)c1ccccc1` (stereo not given), the TGI came to 70.4 µM.

`C#CCCCCC#Cc1ccccc1C(=O)OC` had a TGI of 32.4 µM.

Turning to `C/C(CCOC1CCCCO1)=C(\C)[Si](C)(C)C` (stereo not given), the TGI was > 100 µM.

Regarding `COCCOCOc1ccc(OCc2ccccc2)cc1`, the TGI was > 100 µM.

On to `C=C(C(=O)C(=O)Oc1ccc(Cl)cc1)C(=O)c1ccc(C)cc1`, for which the TGI was > 100 µM.

For another assay, the system named is NCI-H460 lung. The assay can be described thus: NCI tumour cell line growth inhibition, 48 h.
With `COC(=O)C1C(C(=O)OC)N(Cc2ccccc2)C(=O)N1Cc1ccccc1` (stereo not given), the TGI is > 100 µM.

Take `CCOC(=O)c1csc(NC(=O)CCN(CC)CC)n1`: the TGI was > 100 µM.

`CCN1c2ccccc2-n2c(C)nnc2-c2c1n[nH]c2-c1ccccc1`: the TGI was > 100 µM.

As to `C[C@]12CC[C@@H]3c4ccc(O)cc4CC[C@H]3[C@@H]1C/C(=C\c1ccncc1)C2=O`, the TGI was > 100 µM.

For the compound `C=CCN1C(=O)/C(=C/c2ccccc2)N=C1SC1OC(COC(=O)c2ccccc2)C(OC(=O)c2ccccc2)C1OC(=O)c1ccccc1` (stereo not given), the TGI was > 100 µM.

Regarding `C#CCCCCC#Cc1ccccc1C(=O)OC`, the TGI is > 100 µM.

As for `C/C(CCOC1CCCCO1)=C(\C)[Si](C)(C)C` (stereo not given), the TGI was > 100 µM.

Consider `COCCOCOc1ccc(OCc2ccccc2)cc1`, for which the TGI is > 100 µM.

For the compound `C=C(C(=O)C(=O)Oc1ccc(Cl)cc1)C(=O)c1ccc(C)cc1`, the TGI was > 100 µM.

The next assay relates to EKVX NSCLC. The assay is described as follows: NCI tumour cell line growth inhibition, 48 h.
Turning to `COC(=O)C1C(C(=O)OC)N(Cc2ccccc2)C(=O)N1Cc1ccccc1` (stereo not given), the TGI was > 100 µM.

`CCOC(=O)c1csc(NC(=O)CCN(CC)CC)n1`: the TGI is > 100 µM.

With `CCN1c2ccccc2-n2c(C)nnc2-c2c1n[nH]c2-c1ccccc1`, the TGI is > 100 µM.

For the compound `C[C@]12CC[C@@H]3c4ccc(O)cc4CC[C@H]3[C@@H]1C/C(=C\c1ccncc1)C2=O`, the TGI is > 100 µM.

In the case of `C=CCN1C(=O)/C(=C/c2ccccc2)N=C1SC1OC(COC(=O)c2ccccc2)C(OC(=O)c2ccccc2)C1OC(=O)c1ccccc1` (stereo not given), the TGI was > 100 µM.

With `C#CCCCCC#Cc1ccccc1C(=O)OC`, the TGI is > 100 µM.

Take `C/C(CCOC1CCCCO1)=C(\C)[Si](C)(C)C` (stereo not given): the TGI is > 100 µM.

`COCCOCOc1ccc(OCc2ccccc2)cc1` came in with a TGI of 97.3 µM.

Consider `C=C(C(=O)C(=O)Oc1ccc(Cl)cc1)C(=O)c1ccc(C)cc1`, for which the TGI is > 100 µM.

For another assay, the system named is SF-539 CNS. The assay can be described thus: NCI tumour cell line growth inhibition, 48 h.
As for `COC(=O)C1C(C(=O)OC)N(Cc2ccccc2)C(=O)N1Cc1ccccc1` (stereo not given), the TGI is > 100 µM.

In the case of `CCOC(=O)c1csc(NC(=O)CCN(CC)CC)n1`, the TGI was found to be 56.8 µM.

For `CCN1c2ccccc2-n2c(C)nnc2-c2c1n[nH]c2-c1ccccc1`, the TGI is > 100 µM.

`C[C@]12CC[C@@H]3c4ccc(O)cc4CC[C@H]3[C@@H]1C/C(=C\c1ccncc1)C2=O` showed a TGI of 28.9 µM.

As to `C=CCN1C(=O)/C(=C/c2ccccc2)N=C1SC1OC(COC(=O)c2ccccc2)C(OC(=O)c2ccccc2)C1OC(=O)c1ccccc1` (stereo not given), the TGI is > 100 µM.

As for `C#CCCCCC#Cc1ccccc1C(=O)OC`, the TGI is > 100 µM.

Turning to `C/C(CCOC1CCCCO1)=C(\C)[Si](C)(C)C` (stereo not given), the TGI was > 100 µM.

Turning to `COCCOCOc1ccc(OCc2ccccc2)cc1`, the TGI was > 100 µM.

For `C=C(C(=O)C(=O)Oc1ccc(Cl)cc1)C(=O)c1ccc(C)cc1`, the TGI came to 34.7 µM.

Another assay relates to UO-31 renal. The assay can be described thus: NCI tumour cell line growth inhibition, 48 h.
With `COC(=O)C1C(C(=O)OC)N(Cc2ccccc2)C(=O)N1Cc1ccccc1` (stereo not given), the TGI was > 100 µM.

For the compound `CCOC(=O)c1csc(NC(=O)CCN(CC)CC)n1`, the TGI was > 100 µM.

In the case of `CCN1c2ccccc2-n2c(C)nnc2-c2c1n[nH]c2-c1ccccc1`, the TGI was > 100 µM.

In the case of `C[C@]12CC[C@@H]3c4ccc(O)cc4CC[C@H]3[C@@H]1C/C(=C\c1ccncc1)C2=O`, the TGI is > 100 µM.

Consider `C#CCCCCC#Cc1ccccc1C(=O)OC`, for which the TGI is > 100 µM.

As to `C/C(CCOC1CCCCO1)=C(\C)[Si](C)(C)C` (stereo not given), the TGI is > 100 µM.

On to `COCCOCOc1ccc(OCc2ccccc2)cc1`, for which the TGI is > 100 µM.

Regarding `C=C(C(=O)C(=O)Oc1ccc(Cl)cc1)C(=O)c1ccc(C)cc1`, the TGI was > 100 µM.

The subject of another assay is K-562 leukemia. The assay is described as follows: NCI tumour cell line growth inhibition, 48 h.
For the compound `COC(=O)C1C(C(=O)OC)N(Cc2ccccc2)C(=O)N1Cc1ccccc1` (stereo not given), the TGI was > 100 µM.

In the case of `CCOC(=O)c1csc(NC(=O)CCN(CC)CC)n1`, the TGI is > 100 µM.

With `CCN1c2ccccc2-n2c(C)nnc2-c2c1n[nH]c2-c1ccccc1`, the TGI worked out at 26 µM.

Take `C[C@]12CC[C@@H]3c4ccc(O)cc4CC[C@H]3[C@@H]1C/C(=C\c1ccncc1)C2=O`: the TGI was > 100 µM.

With `C=CCN1C(=O)/C(=C/c2ccccc2)N=C1SC1OC(COC(=O)c2ccccc2)C(OC(=O)c2ccccc2)C1OC(=O)c1ccccc1` (stereo not given), the TGI is > 100 µM.

In turn, `C#CCCCCC#Cc1ccccc1C(=O)OC` returned a TGI of 67.4 µM.

Consider `C/C(CCOC1CCCCO1)=C(\C)[Si](C)(C)C` (stereo not given), for which the TGI is > 100 µM.

As for `COCCOCOc1ccc(OCc2ccccc2)cc1`, the TGI is > 100 µM.

`C=C(C(=O)C(=O)Oc1ccc(Cl)cc1)C(=O)c1ccc(C)cc1`: the TGI was > 100 µM.

The next assay has as its system RXF 393 renal. The assay can be described thus: NCI tumour cell line growth inhibition, 48 h.
`COC(=O)C1C(C(=O)OC)N(Cc2ccccc2)C(=O)N1Cc1ccccc1` (stereo not given): the TGI is > 100 µM.

In the case of `CCOC(=O)c1csc(NC(=O)CCN(CC)CC)n1`, the TGI was > 100 µM.

`CCN1c2ccccc2-n2c(C)nnc2-c2c1n[nH]c2-c1ccccc1`: the TGI is > 100 µM.

Consider `C[C@]12CC[C@@H]3c4ccc(O)cc4CC[C@H]3[C@@H]1C/C(=C\c1ccncc1)C2=O`, for which the TGI is > 100 µM.

Turning to `C=CCN1C(=O)/C(=C/c2ccccc2)N=C1SC1OC(COC(=O)c2ccccc2)C(OC(=O)c2ccccc2)C1OC(=O)c1ccccc1` (stereo not given), the TGI was > 100 µM.

`C#CCCCCC#Cc1ccccc1C(=O)OC` yielded a TGI of 95.1 µM.

Consider `COCCOCOc1ccc(OCc2ccccc2)cc1`, for which the TGI is > 100 µM.

`C=C(C(=O)C(=O)Oc1ccc(Cl)cc1)C(=O)c1ccc(C)cc1` gave a TGI of 79.3 µM.

For the origin of these results see PubChem BioAssay (NCI).
